System: lung cancer cell lines (A549 and chemotherapy-resistant/metastatic H460)
Experiment: XTT proliferation assay, lung cancer cells
Assay type: cell-based
Details: DT 5, 10, 20 μM; gemcitabine hydrochloride and etoposide 10, 20 μM; 1-2 days; regardless of the dosage; also H460; FIG. 2
Procedure: The prostate cancer cells were plated at a density of 10^3 or 3×10^3 per well, in a 96-well plate, in a medium containing 10% Fetal bovine serum (FBS) (Gibco®, commercially available from Life Technologies, USA). Once the prostate cancer cells were attached to the culture dish, the 10% FBS medium was replaced with a second 10% FBS medium and each of the prostate cancer cell line was treated with 1, 5, and 10 μM of DT respectively for 1-2 days. The absorbance was measured using XTT assay kit (commercially available from Roche, Switzerland) at 492 nm using an ELISA reader (Bio-Rad Laboratories, USA). An in vitro evaluation of the effect of DT, gemcitabine (a chemotherapeutic agent) and etoposide (a chemotherapeutic agent) on the lung cancer cells was performed. The lung cancer cell lines, chemotherapy-resistant/metastatic H460 lung cancer cells (with pleural metastasis) and A549 lung cancer cells, were purchased from Bioresource Collection and Research Center, Taiwan. […] The absorbance was measured using XTT assay kit at 492 nm using an ELISA reader.

| SMILES | inhibition of lung cancer proliferation, DT compared with gemcitabine and etoposide |
| --- | --- |
| COc1cc([C@@H]2c3cc4c(cc3[C@@H](O[C@@H]3O[C@@H]5CO[C@@H](C)O[C@H]5[C@H](O)[C@H]3O)[C@H]3COC(=O)[C@H]23)OCO4)cc(OC)c1O [etoposide, reference compound] | DT is more effective than gemcitabine and etoposide |
| Nc1ccn([C@@H]2O[C@H](CO)[C@@H](O)C2(F)F)c(=O)n1 [gemcitabine, reference compound] | DT is more effective than gemcitabine and etoposide |

— patent US10426755B2, “Methods for inhibiting cancer cells” (Chang Gung Memorial Hospital, Chiayi, priority 2015, dated 2019)
